# Source: patent publication US11912701B2, “Protein kinase inhibitors for promoting liver regeneration or reducing or preventing hepatocyte death” (HEPAREGENIX GMBH, priority 2018, dated 2024)
# What was measured:
# Type in all cases: biochemical
# JNK1 = JNK1 (Homo sapiens, UniProt P45983); assay: 33PanQinase enzyme assay, JNK1; design: purchased ProQinase GmbH, Freiburg, Germany (33PanQinase Assay Service); conditions: ratio IC50(JNK1)/IC50(MKK4)
# Description: (§1) The kinase activities of the compounds of the invention were measured using the 33PanQinase® Assay Service provided by ProQinase GmbH, Freiburg, Germany. Details of the assay conditions are disclosed on the website of ProQinase (https://www.proginase.com/products-services-biochemical-assay-services/kinase-assays). In brief, all kinase assays were performed in 96-well FlashPlates™ from PerkinElmer (Boston, MA, USA) in a 50 μl reaction volume. The reaction cocktail was pipetted in four steps in the following order: • 20 μl of assay buffer (standard buffer) • 5 μl of ATP solution (in H2O) • 5 μl of test compound (in 10% DMSO) • 20 μl enzyme/subtrate mix
# (§2) The reaction cocktails were incubated at 30° C. for 60 minutes. The reaction is stopped with 50 μl of 2% (v/v) H3PO4, plates were aspirated and washed two times with 200 μl 0.9% (w/v) NaCl. Incorporation of ^33Pi was determined with a microplate scintillation counter (Microbeta, Wallac).
# (§3) All assays were performed with a BeckmanCoulter/SAGIAN™ Core System.
# (§4) In case of single concentration assays, the potency of the test compound is expressed as % residual activity. […] The fitting method used was a least-squares fit.
# (§5) Selectivity of test compounds against BRaf, JNK1 and MKK7, altogether denominated as off-targets was calculated by the ratio of IC50 (off-target)/IC50 (MKK4) and categorized as follows: […]
# MKK7 = target: T1, MKK7 (Homo sapiens, UniProt O14733); assay: 33PanQinase enzyme assay, MKK7; design: purchased ProQinase GmbH, Freiburg, Germany (33PanQinase Assay Service); conditions: ratio IC50(MKK7)/IC50(MKK4)
# T1 sequence (O14733 1-419): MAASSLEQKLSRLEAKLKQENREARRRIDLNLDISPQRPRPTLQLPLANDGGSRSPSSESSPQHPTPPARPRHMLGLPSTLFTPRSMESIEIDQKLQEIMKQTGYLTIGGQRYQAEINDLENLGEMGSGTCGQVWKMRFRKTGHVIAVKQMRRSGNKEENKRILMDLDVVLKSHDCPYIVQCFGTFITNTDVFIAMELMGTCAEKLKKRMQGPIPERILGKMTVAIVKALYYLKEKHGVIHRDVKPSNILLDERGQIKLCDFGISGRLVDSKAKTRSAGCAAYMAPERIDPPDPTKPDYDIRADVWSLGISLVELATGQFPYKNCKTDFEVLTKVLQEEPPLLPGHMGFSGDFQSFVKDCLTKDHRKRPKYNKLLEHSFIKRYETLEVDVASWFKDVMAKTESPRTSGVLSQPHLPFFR
# Description: as §1, §2, §3, §4, §5
# MKK4 = target: T2, MKK4 (Homo sapiens, UniProt P45985); assay: 33PanQinase enzyme assay, MKK4; conditions: for IC50: read-out: Potency MKK4 (IC50)
# T2 construct: purchased ProQinase GmbH, Freiburg, Germany (33PanQinase Assay Service)
# T2 sequence (P45985 1-399): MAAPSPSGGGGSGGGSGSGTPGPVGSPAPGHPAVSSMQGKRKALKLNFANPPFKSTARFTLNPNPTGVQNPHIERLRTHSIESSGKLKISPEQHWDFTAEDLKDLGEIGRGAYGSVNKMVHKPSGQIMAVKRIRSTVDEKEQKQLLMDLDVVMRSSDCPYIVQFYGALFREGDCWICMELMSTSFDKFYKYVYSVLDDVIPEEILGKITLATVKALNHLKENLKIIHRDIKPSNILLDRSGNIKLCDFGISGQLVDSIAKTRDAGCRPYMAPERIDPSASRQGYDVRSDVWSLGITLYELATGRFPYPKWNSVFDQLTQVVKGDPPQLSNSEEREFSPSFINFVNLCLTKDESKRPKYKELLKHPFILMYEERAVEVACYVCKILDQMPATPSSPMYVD
# Description: as §1, §2, §3, §4
# Inhibition potency against MKK4 is categorized as follows:
# Assay at single concentration (100 nM):
# BRaf = target: T3, BRaf (Homo sapiens, UniProt P15056); assay: 33PanQinase enzyme assay, BRaf; conditions: ratio IC50(BRaf)/IC50(MKK4)
# T3 construct: purchased ProQinase GmbH, Freiburg, Germany (33PanQinase Assay Service)
# T3 sequence (P15056 whole entry, species assumed): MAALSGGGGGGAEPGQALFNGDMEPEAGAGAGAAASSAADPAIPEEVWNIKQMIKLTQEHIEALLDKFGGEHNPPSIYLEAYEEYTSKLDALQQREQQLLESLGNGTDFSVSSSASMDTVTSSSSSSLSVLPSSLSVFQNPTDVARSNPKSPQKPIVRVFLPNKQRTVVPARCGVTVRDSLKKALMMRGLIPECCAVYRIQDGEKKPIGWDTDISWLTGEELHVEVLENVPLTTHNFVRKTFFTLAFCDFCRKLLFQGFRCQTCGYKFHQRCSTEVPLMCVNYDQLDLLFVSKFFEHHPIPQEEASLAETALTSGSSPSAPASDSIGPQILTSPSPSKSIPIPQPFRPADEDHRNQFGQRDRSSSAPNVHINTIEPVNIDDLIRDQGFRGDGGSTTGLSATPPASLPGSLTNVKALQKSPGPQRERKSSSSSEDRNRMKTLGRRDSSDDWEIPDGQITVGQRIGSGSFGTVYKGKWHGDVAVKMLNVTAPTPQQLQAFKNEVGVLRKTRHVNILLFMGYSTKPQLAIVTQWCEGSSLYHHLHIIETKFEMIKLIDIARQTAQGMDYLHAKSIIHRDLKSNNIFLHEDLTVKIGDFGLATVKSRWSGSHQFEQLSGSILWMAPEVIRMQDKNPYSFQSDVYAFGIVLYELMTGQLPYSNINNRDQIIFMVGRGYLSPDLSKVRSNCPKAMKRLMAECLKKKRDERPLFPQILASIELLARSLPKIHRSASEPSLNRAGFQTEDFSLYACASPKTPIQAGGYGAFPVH
# Description: as §1, §2, §3, §4, §5
# Chain of JNK1 (P45983 whole entry): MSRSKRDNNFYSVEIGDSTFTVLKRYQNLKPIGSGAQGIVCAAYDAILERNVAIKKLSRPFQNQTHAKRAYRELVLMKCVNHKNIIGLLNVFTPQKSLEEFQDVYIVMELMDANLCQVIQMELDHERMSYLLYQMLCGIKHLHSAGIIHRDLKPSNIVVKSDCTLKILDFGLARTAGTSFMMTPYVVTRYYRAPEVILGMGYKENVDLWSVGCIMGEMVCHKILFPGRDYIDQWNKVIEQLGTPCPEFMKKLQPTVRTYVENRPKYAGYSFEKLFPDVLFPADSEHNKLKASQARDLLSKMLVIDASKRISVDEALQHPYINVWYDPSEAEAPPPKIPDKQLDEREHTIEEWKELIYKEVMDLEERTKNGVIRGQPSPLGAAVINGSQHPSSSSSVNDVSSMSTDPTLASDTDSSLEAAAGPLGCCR
SMILES,"Selectivity JNK1, IC50(off-target)/IC50(MKK4) (JNK1)","Selectivity IVIKK7, IC50(off-target)/IC50(MKK4) (MKK7)",IC50 (MKK4; assay 'IC50') [nM],"Selectivity Braf, IC50(off-target)/IC50(MKK4) (BRaf)",Potency MKK4 (IC50) (MKK4; assay 'IC50'),"remaining activity at 0.1 µM (MKK4; single concentration 100 nM, read-out: Potency MKK4 (residual activity, assay at single concentration)) [%]"
"CCCS(=O)(=O)Nc1ccc(F)c(C(=O)c2c[nH]c3ncc(-c4ccc([S+](C)[O-])cc4)cc23)c1F (stereo not shown) [Example 75, N-(2,4-difluoro-3-(5-(4-(methylsulfinyl)phenyl)-1H-pyrrolo[2,3-b]pyridine-3-carbonyl)phenyl)propane-1-sulfonamide]",+ (10 ≥ IC50(off-target)/IC50(MKK4) > 3),+++ (IC50(off-target)/IC50(MKK4) > 100),100 to 1000,◯ (3 ≥ IC50(off-target)/IC50(MKK4)),,
CCCS(=O)(=O)Nc1ccc(F)c(C(=O)c2c[nH]c3ncc(-c4ccc(S(C)(=O)=O)cc4)cc23)c1F [Example 54],◯ (3 ≥ IC50(off-target)/IC50(MKK4)),+++ (IC50(off-target)/IC50(MKK4) > 100),100 to 1000,◯ (3 ≥ IC50(off-target)/IC50(MKK4)),,
"CCCS(=O)(=O)Nc1c(F)ccc(C(=O)c2c[nH]c3ncc(-c4cnc(N5CC(O)C5)nc4)cc23)c1F [Example 205, N-(2,6-difluoro-3-(5-(2-(3-hydroxyazetidin-1-yl)pyrimidin-5-yl)-1H-pyrrolo[2,3-b]pyridine-3-carbonyl)phenyl)propane-1-sulfonamide]",++ (100 ≥ IC50(off-target)/IC50(MKK4) > 10),+++ (IC50(off-target)/IC50(MKK4) > 100),100 to 1000,++ (100 ≥ IC50(off-target)/IC50(MKK4) > 10),,
"CCCS(=O)(=O)Nc1c(F)ccc(C(=O)c2c[nH]c3ncc(-c4cnc(Cl)nc4)cc23)c1F [Example 237, N-(3-(5-(2-chloropyrimidin-5-yl)-1H-pyrrolo[2,3-b]pyridine-3-carbonyl)-2,6-difluorophenyl)propane-1-sulfonamide]",+++ (IC50(off-target)/IC50(MKK4) > 100),+++ (IC50(off-target)/IC50(MKK4) > 100),,+++ (IC50(off-target)/IC50(MKK4) > 100),+++·,
"CCCS(=O)(=O)Nc1ccc(F)c(C(=O)c2c[nH]c3ncc(-c4ccc(SC(F)(F)F)cc4)cc23)c1F [Example 78, N-(2,4-difluoro-3-(5-(4-((trifluoromethyl)thio)phenyl)-1H-pyrrolo[2,3-b]pyridine-3-carbonyl)phenyl)propane-1-sulfonamide]",+ (10 ≥ IC50(off-target)/IC50(MKK4) > 3),+++ (IC50(off-target)/IC50(MKK4) > 100),100 to 1000,◯ (3 ≥ IC50(off-target)/IC50(MKK4)),,
"CCCS(=O)(=O)Nc1c(F)ccc(C(=O)c2c[nH]c3ncc(-c4ccc(OCC(O)CO)cc4Cl)cc23)c1F (stereo not shown) [Example 153, N-(3-(5-(2-chloro-4-(2,3-dihydroxypropoxy)phenyl)-1H-pyrrolo[2,3-b]pyridine-3-carbonyl)-2,6-difluorophenyl)propane-1-sulfonamide]",++ (100 ≥ IC50(off-target)/IC50(MKK4) > 10),+++ (IC50(off-target)/IC50(MKK4) > 100),< 100,+++ (IC50(off-target)/IC50(MKK4) > 100),,
CCCS(=O)(=O)Nc1ccc(F)c(C(=O)c2c[nH]c3ncc(-c4ccoc4)cc23)c1F [Example 56],◯ (3 ≥ IC50(off-target)/IC50(MKK4)),+++ (IC50(off-target)/IC50(MKK4) > 100),100 to 1000,◯ (3 ≥ IC50(off-target)/IC50(MKK4)),,
"CCCS(=O)(=O)Nc1c(F)ccc(C(=O)c2c[nH]c3ncc(-c4ccccc4C(=O)O)cc23)c1F [Example 224, 2-(3-(2,4-difluoro-3-(propylsulfonamido)benzoyl)-1H-pyrrolo[2,3-b]pyridin-5-yl)benzoic acid]",◯ (3 ≥ IC50(off-target)/IC50(MKK4)),++ (100 ≥ IC50(off-target)/IC50(MKK4) > 10),1000 to 10000,◯ (3 ≥ IC50(off-target)/IC50(MKK4)),,
"CCCS(=O)(=O)Nc1c(F)ccc(C(=O)c2c[nH]c3ncc(-c4cnc(C5CC5)cc4C)cc23)c1F [Example 167, N-(3-(5-(6-cyclopropyl-4-methylpyridin-3-yl)-1H-pyrrolo[2,3-b]pyridine-3-carbonyl)-2,6-difluorophenyl)propane-1-sulfonamide]",+++ (IC50(off-target)/IC50(MKK4) > 100),+++ (IC50(off-target)/IC50(MKK4) > 100),< 100,+++ (IC50(off-target)/IC50(MKK4) > 100),,
"CCCS(=O)(=O)Nc1ccc(F)c(C(=O)c2c[nH]c3ncc(-c4ccc(S(N)(=O)=O)cc4)cc23)c1F [Example 96, 4-(3-(2,6-difluoro-3-(propylsulfonamido)benzoyl)-pyrrolo[2,3-b]pyridin-5-yl)benzenesulfonamide]",,,,,,50 to 70
"CCCS(=O)(=O)Nc1c(F)ccc(C(=O)c2c[nH]c3ncc(-c4ccc(F)cc4C)cc23)c1F [Example 217, N-(2,6-difluoro-3-(5-(4-fluoro-2-methylphenyl)-1H-pyrrolo[2,3-b]pyridine-3-carbonyl)phenyl)propane-1-sulfonamide]",+++ (IC50(off-target)/IC50(MKK4) > 100),+++ (IC50(off-target)/IC50(MKK4) > 100),< 100,+++ (IC50(off-target)/IC50(MKK4) > 100),,
"Nc1c(F)ccc(C(=O)c2c[nH]c3ncc(-c4ccc(Cl)cc4)cc23)c1F [Example 212, (3-amino-2,4-difluorophenyl)(5-(4-chlorophenyl)-1H-pyrrolo[2,3-b]pyridin-3-yl)methanone]",◯ (3 ≥ IC50(off-target)/IC50(MKK4)),+++ (IC50(off-target)/IC50(MKK4) > 100),100 to 1000,+ (10 ≥ IC50(off-target)/IC50(MKK4) > 3),,
"CCCS(=O)(=O)Nc1ccc(F)c(C(=O)c2c[nH]c3ncc(-c4ccc(N)cc4)cc23)c1F [Example 121, N-(3-(5-(4-aminophenyl)-1H-pyrrolo[2,3-b]pyridine-3-carbonyl)-2,4-difluorophenyl)propane-1-sulfonamide]",,,100 to 1000,,,
